Assay results taken from ChEMBL document CHEMBL3885861, “Open TG-GATES”.

Species on record: Rattus norvegicus
Assay: Open TG-GATES - Regimen: Daily Repeat
Type: toxicity, organism-based, Sprague-Dawley
Set-up: regimen Daily Repeat, gender Male, age 6 weeks
Settings: in vivo, po, 100 mg/kg, […], route gavage, dose level Low; for KIDNEY_L / KIDNEY_R / KIDNEY_TOTAL: tissue Kidney; for LIVER: tissue Liver; for A/G / ALP / ALT / AST / BUN / CRE / Ca / Cl / DBIL / GLC / IP / K / LDH / Na / PL / RALB / TBIL / TC / TG / TP / gamma-GTP: tissue Plasma

Structure (SMILES): O=C(OC[C@H]1O[C@@H](OC(=O)c2cc(O)c(O)c(OC(=O)c3cc(O)c(O)c(O)c3)c2)[C@H](OC(=O)c2cc(O)c(O)c(OC(=O)c3cc(O)c(O)c(O)c3)c2)[C@@H](OC(=O)c2cc(O)c(O)c(OC(=O)c3cc(O)c(O)c(O)c3)c2)[C@@H]1OC(=O)c1cc(O)c(O)c(OC(=O)c2cc(O)c(O)c(O)c2)c1)c1cc(O)c(O)c(OC(=O)c2cc(O)c(O)c(O)c2)c1 [TANNIC ACID]
- Lym (tissue Blood, time 28 day): 80.4%
- MCH (tissue Blood, time 28 day): 19.9 pg
- MCHC (tissue Blood, time 28 day): 33.5%
- MCV (tissue Blood, time 28 day): 59.5 fL
- Mono (tissue Blood, time 28 day): 5.8%
- Neu (tissue Blood, time 28 day): 12.4%
- PT (tissue Blood, time 28 day): 12 s
- Plat (tissue Blood, time 28 day): 116.4 x10_4/uL
- RBC (tissue Blood, time 28 day): 757.4 x10_4/ul
- Ret (tissue Blood, time 28 day): 2.8%
- WBC (tissue Blood, time 28 day): 142.1 x10_2/uL
- KIDNEY_L (time 7 day): 1 g
- KIDNEY_R (time 7 day): 1 g
- KIDNEY_TOTAL (time 7 day): 2.1 g
- KIDNEY_L (time 14 day): 1.1 g
- KIDNEY_R (time 14 day): 1.2 g
- KIDNEY_TOTAL (time 14 day): 2.3 g
- KIDNEY_L (time 28 day): 1.4 g
- KIDNEY_R (time 28 day): 1.5 g
- KIDNEY_TOTAL (time 28 day): 2.9 g
- LIVER (time 7 day): 12.2 g
- LIVER (time 14 day): 13.7 g
- LIVER (time 28 day): 15.5 g
- A/G (time 7 day): 1.5
- ALP (time 7 day): 796.4 IU/L
- ALT (time 7 day): 32.2 IU/L
- AST (time 7 day): 62.6 IU/L
- BUN (time 7 day): 18.4 mg/dL
- CRE (time 7 day): 0.5 mg/dL
- Ca (time 7 day): 11.1 mg/dL
- Cl (time 7 day): 103.2 meq/L
- DBIL (time 7 day): 0.004 mg/dL
- GLC (time 7 day): 207.4 mg/dL
- IP (time 7 day): 8.3 mg/dL
- K (time 7 day): 4.3 meq/L
- LDH (time 7 day): 87.6 IU/L
- Na (time 7 day): 138 meq/L
- PL (time 7 day): 160.8 mg/dL
- RALB (time 7 day): 3.6 g/dL
- TBIL (time 7 day): 0.4 mg/dL
- TC (time 7 day): 84.2 mg/dL
- TG (time 7 day): 116.2 mg/dL
- TP (time 7 day): 6 g/dL
- gamma-GTP (time 7 day): 1.6 IU/L
- A/G (time 14 day): 1.8
- ALP (time 14 day): 726.5 IU/L
- ALT (time 14 day): 32 IU/L
- AST (time 14 day): 58.2 IU/L
- BUN (time 14 day): 18.5 mg/dL
- CRE (time 14 day): 0.6 mg/dL
- Ca (time 14 day): 10.9 mg/dL
- Cl (time 14 day): 102.8 meq/L
- DBIL (time 14 day): 0.01 mg/dL
- GLC (time 14 day): 207.5 mg/dL
- IP (time 14 day): 8.3 mg/dL
- K (time 14 day): 4.2 meq/L
- LDH (time 14 day): 77 IU/L
- Na (time 14 day): 140 meq/L
- PL (time 14 day): 140.2 mg/dL
- RALB (time 14 day): 3.9 g/dL
- TBIL (time 14 day): 0.3 mg/dL
- TC (time 14 day): 69.5 mg/dL
- TG (time 14 day): 100.2 mg/dL
- TP (time 14 day): 6.1 g/dL
- gamma-GTP (time 14 day): 1.8 IU/L
- A/G (time 28 day): 1.6
- ALP (time 28 day): 659.6 IU/L
- ALT (time 28 day): 34 IU/L
- AST (time 28 day): 64.6 IU/L
- BUN (time 28 day): 20.2 mg/dL
- CRE (time 28 day): 0.6 mg/dL
- Ca (time 28 day): 10.8 mg/dL
- Cl (time 28 day): 106.4 meq/L
- DBIL (time 28 day): 0.006 mg/dL
- GLC (time 28 day): 196.8 mg/dL
- IP (time 28 day): 7.4 mg/dL
- K (time 28 day): 4.3 meq/L
- LDH (time 28 day): 78.2 IU/L
- Na (time 28 day): 139.4 meq/L
- PL (time 28 day): 145.8 mg/dL
- RALB (time 28 day): 3.8 g/dL
- TBIL (time 28 day): 0.3 mg/dL
- TC (time 28 day): 70.6 mg/dL
- TG (time 28 day): 108 mg/dL
- TP (time 28 day): 6.2 g/dL
- gamma-GTP (time 28 day): 2 IU/L
